Article PMC5874699, “Antimicrobial and Antibiofilm Activity of UP-5, an Ultrashort Antimicrobial Peptide Designed Using Only Arginine and Biphenylalanine” (Pharmaceuticals, 2018)

Columns and labels:
S. aureus (ATCC BAA-41) [1] = format: cell-based, Staphylococcus aureus; details: S. aureus ATCC BAA-41, antibiotic alone, triplicate
Excerpt: (§1) All bacterial susceptibility, biofilm, and synergistic assays of peptides, antibiotics, and peptides-antibiotics combinations used bacterial strains obtained from the American Type Tissue Culture Collection (ATCC, Manassas, VA, USA) that states the mechanism of resistance for each strain according to ATCC number. Gram-positive bacteria were represented by five strains, the wild type strain Staphylococcus aureus (ATCC 29213) and methicillin-resistant S. aureus (MRSA) (ATCC 33591) in addition to clinically isolated strains S. aureus (ATCC BAA-41& 43300) and Enterococcus faecalis (ATCC BAA-2316). The Gram-negative bacteria strains were represented by wild type strains of Escherichia coli (ATCC 25922 & 35218) and Pseudomonas aeruginosa (ATCC 27853) as well as the clinically isolated multidrug-resistant strain P. aeruginosa (ATCC BAA-2114). The bacteria were cultured onto Muller Hinton Agar (Scharlab, S.L, Barcelona, Spain). Mueller Hinton Broth (Oxoid Ltd., Basingstoke, UK) was used to prepare all bacterial suspensions and to dissolve the peptides and the antibiotics. The assay was performed in sterile 96-well polypropylene microtiter plates.
(§2) All bacterial susceptibility assays were conducted according to the microbroth dilution method outlined by the Clinical and Laboratory Standards Institute (CLSI) guidelines.
(§3) Briefly, pre-sterilized MHB was used as a growth medium for organisms obtained from stock media with glycerol. Bacterial cells were grown overnight in MHB and diluted to 10^6 CFU/mL in the same medium prior to use. For peptide, serial concentrations in the range of 0.5–100 μM were prepared. Then, 50 μL of each peptide concentration and 50 µL of diluted bacterial suspension were added to each well of a 96-well microtiter plate. Peptide solutions were prepared by dissolving the peptide in sterile MHB. Then, the plates were incubated overnight in a humidified atmosphere, and at 37 °C. Bacterial growth was determined by measuring the optical density (OD) at λ = 600 nm using an ELISA plate reader (Epoch, BioTek, Winooski, VT, USA) and the minimum inhibitory concentration (MIC) was determined.
(§4) As described in the previous section, the MIC and MBC values of antibiotics employed in this study were determined against subjected bacterial strains via preparing different concentrations of each antibiotic.

S. aureus (ATCC 43300) [2] = format: cell-based, Staphylococcus aureus; details: S. aureus ATCC 43300, antibiotic alone, triplicate
Excerpt: as §1, §2, §3, §4

[3] = tested on: methicillin-resistant S. aureus (MRSA) (ATCC 33591); assay: MIC/MBC, microbroth dilution (CLSI); format: cell-based, Staphylococcus aureus; details: S. aureus ATCC 33591, antibiotic alone, triplicate
Excerpt: as §1, §2, §3, §4

[4] = tested on: P. aeruginosa (ATCC BAA-2114); assay: Broth microdilution checkerboard, UP-5 with antibiotics; format: cell-based, Pseudomonas aeruginosa
Excerpt: as §1
(§5) According to the broth microdilution checkerboard technique, the MIC and MBC values of peptide-antibiotics combinations against wild type and multidrug resistant bacterial strains were determined. Serial concentrations of peptide and each antibiotic were prepared in the range of 0.005–100 μM. In each well of a 96-well microtiter plate, 25 μL of each peptide concentration were added to 25 μL of each antibiotic concentration which is followed by adding 50 μL of diluted bacterial suspension (10^6 CFU/mL) to each well. The prepared concentrations of peptide and each antibiotic were arranged into rows and columns, respectively, in a 96-well microtiter plate according the checkerboard technique. Then as described previously (see Section 2.4.1), the procedure was followed. All MIC and MBC determinations of all assays were made in triplicate.
(§6) The fractional inhibitory concentration (FIC) is defined as the inhibitory concentration of the antimicrobial combination divided by that of the single antimicrobial component. To calculate FIC index for peptide-antibiotic combinations, the following equation was used:(1) FIC index=MIC of drug X in combination/MIC of drug X alone+MIC of drug Y in combination/MIC of drug Y alone
(§7) The FIC indices were interpreted as follows: ≤0.5: synergistic activity, 0.5–1: additive activity, 1–4 indifferent, >4: antagonism. Interpretation and assessment of the FIC indices were performed according to the broth microdilution checkerboard technique.

[5] = tested on: Staphylococcus aureus (ATCC 29213); format: cell-based; details: S. aureus ATCC 29213, antibiotic alone, triplicate
Excerpt: as §1, §2, §3, §4

[6] = tested on: P. aeruginosa (ATCC BAA-2114); format: cell-based, Pseudomonas aeruginosa; details: P. auroginosa ATCC BAA-2114, antibiotic alone, triplicate
Excerpt: as §1, §2, §3, §4

S. aureus (ATCC 29213) = assay: Broth microdilution checkerboard, UP-5 with antibiotics; format: cell-based, Staphylococcus aureus
Excerpt: as §1, §5, §6, §7

S. aureus (ATCC 33591) = assay: as above; format: cell-based, Staphylococcus aureus
Excerpt: as §1, §5, §6, §7

S. aureus (ATCC BAA-41) [7] = assay: as above; format: cell-based, Staphylococcus aureus
Excerpt: as §1, §5, §6, §7

S. aureus (ATCC 43300) [8] = assay: as above; format: cell-based, Staphylococcus aureus
Excerpt: as §1, §5, §6, §7

CO[C@H]1/C=C/O[C@@]2(C)Oc3c(C)c(O)c4c(O)c(c(/C=N/N5CCN(C)CC5)c(O)c4c3C2=O)NC(=O)/C(C)=C\C=C\[C@H](C)[C@H](O)[C@@H](C)[C@@H](O)[C@@H](C)[C@H](OC(C)=O)[C@@H]1C [Rifampicin, rifampicin]
Antibiotics MBC Alone (S. aureus (ATCC BAA-41) [1]; 99.9% killing): 0.005 µM | Antibiotics MIC Alone (S. aureus (ATCC BAA-41) [1]; microbroth dilution): 0.005 µM | Antibiotics MBC Alone (S. aureus (ATCC 43300) [2]; 99.9% killing): 1 µM | Antibiotics MIC Alone (S. aureus (ATCC 43300) [2]; microbroth dilution): 1 µM | Antibiotics MBC Alone ([3]; 99.9% killing): 0.04 µM | Antibiotics MIC Alone ([3]; microbroth dilution): 0.04 µM | Effect of the combination according to FIC value ([4]; P. aeruginosa (ATCC 2114 as printed), antibiotic-UP-5 combination): synergistic (≤0.5: synergistic activity) | Antibiotics MIC in Combination ([4]; P. auroginosa ATCC BAA-2114, antibiotic in combination with UP-5, checkerboard, triplicate): 0.25 µM | Antibiotics MBC Alone ([5]; 99.9% killing): 0.025 µM | Antibiotics MIC Alone ([5]; microbroth dilution): 0.025 µM | Antibiotics MBC Alone ([6]; 99.9% killing): 50 µM | Antibiotics MIC Alone ([6]; microbroth dilution): 50 µM | Effect of the combination according to FIC value (S. aureus (ATCC 29213); S. aureus (ATCC 29213), antibiotic-UP-5 combination): indifferent (1–4 indifferent) | Antibiotics Reduction in MIC (%) (S. aureus (ATCC 29213); S. aureus ATCC 29213, antibiotic MIC in combination with UP-5 compared to MIC alone): <50% | Antibiotics MIC in Combination (S. aureus (ATCC 29213); S. aureus ATCC 29213, antibiotic in combination with UP-5, checkerboard, triplicate): 0.025 µM | Effect of the combination according to FIC value (S. aureus (ATCC 33591); S. aureus (ATCC 33591), antibiotic-UP-5 combination): synergistic (≤0.5: synergistic activity) | Antibiotics Reduction in MIC (%) (S. aureus (ATCC 33591); S. aureus ATCC 33591, antibiotic MIC in combination with UP-5 compared to MIC alone): 87.5% | Antibiotics MIC in Combination (S. aureus (ATCC 33591); S. aureus ATCC 33591, antibiotic in combination with UP-5, checkerboard, triplicate): 0.005 µM | Effect of the combination according to FIC value (S. aureus (ATCC BAA-41) [7]; S. aureus (ATCC BAA-41), antibiotic-UP-5 combination): indifferent (1–4 indifferent) | Antibiotics Reduction in MIC (%) (S. aureus (ATCC BAA-41) [7]; S. aureus ATCC BAA-41, antibiotic MIC in combination with UP-5 compared to MIC alone): 60% | Antibiotics MIC in Combination (S. aureus (ATCC BAA-41) [7]; S. aureus ATCC BAA-41, antibiotic in combination with UP-5, checkerboard, triplicate): 0.002 µM | Effect of the combination according to FIC value (S. aureus (ATCC 43300) [8]; S. aureus (ATCC 43300), antibiotic-UP-5 combination): synergistic (≤0.5: synergistic activity) | Antibiotics Reduction in MIC (%) (S. aureus (ATCC 43300) [8]; S. aureus ATCC 43300, antibiotic MIC in combination with UP-5 compared to MIC alone): 87.5%
